Molecules are shown by their SMILES.

Molecule `Cc1c(Cl)ccc2c(C3=NC(C)(C)C(F)(F)c4ccccc43)cnn12` [X.001, 1-(6-chloro-7-methyl-pyrazolo[1,5-a]pyridin-3-yl)-4,4-difluoro-3,3-dimethyl-isoquinoline] registered a melting point of 166 to 168 °C.

Molecule `CC1(C)N=C(c2cnn3cc(Cl)ccc23)c2ccccc2C1(F)F` [X.003, 1-(6-chloropyrazolo[1,5-a]pyridin-3-yl)-4,4-difluoro-3,3-dimethyl-isoquinoline] returned a melting point of 113 to 118 °C. Regarding `Cc1ccc2c(C3=NC(C)(C)C(F)(F)c4ccccc43)cnn2c1` [X.005, 4,4-difluoro-3,3-dimethyl-1-(6-methylpyrazolo[1,5-a]pyridin-3-yl)isoquinoline], the melting point was in the range of 105 to 107 °C. In turn, `CC1(C)N=C(c2cnn3cc(Br)ccc23)c2ccccc2C1(F)F` [X.006, 1-(6-bromopyrazolo[1,5-a]pyridin-3-yl)-4,4-difluoro-3,3-dimethyl-isoquinoline] had a melting point of 127 to 129 °C.

The molecule `Cc1c(Br)ccc2c(C3=NC(C)(C)C(F)(F)c4ccccc43)cnn12` [X.007, 1-(6-bromo-7-methyl-pyrazolo[1,5-a]pyridin-3-yl)-4,4-difluoro-3,3-dimethyl-isoquinoline] had a melting point of 180 to 182 °C.

Take `Cc1ccc2c(C3=NC(C)(C)C(F)(F)c4ccccc43)cnn2c1C` [X.011, 1-(6,7-dimethylpyrazolo[1,5-a]pyridin-3-yl)-4,4-difluoro-3,3-dimethyl-isoquinoline]: the melting point lay within 160 to 161 °C. In the case of `Cc1ccc2c(C3=NC(C)(C)C(C)(C)c4c(F)cccc43)cnn2c1C` [X.012, 1-(6,7-dimethylpyrazolo[1,5-a]pyridin-3-yl)-5-fluoro-3,3,4,4-tetramethyl-isoquinoline] it was 175 to 176 °C. To `Cc1cccc2c(C3=NC(C)(C)C(C)(C)c4c(F)cccc43)cnn12` [X.013, 5-fluoro-3,3,4,4-tetramethyl-1-(7-methylpyrazolo[1,5-a]pyridin-3-yl)isoquinoline] belongs 134 to 136 °C; to `Cc1ccn2c(C3=NC(C)(C)C(F)(F)c4ccccc43)cnc2c1C` [X.014, 1-(7,8-dimethylimidazo[1,2-a]pyridin-3-yl)-4,4-difluoro-3,3-dimethyl-isoquinoline], 159 to 161 °C. To `Cc1ccn2c(C3=NC(C)(C)C(C)(C)c4c(F)cccc43)cnc2c1C` [X.016, 1-(7,8-dimethylimidazo[1,2-a]pyridin-3-yl)-5-fluoro-3,3,4,4-tetramethyl-isoquinoline] belongs 185 to 186 °C. `Cc1cccn2c(C3=NC(C)(C)C(C)(C)c4c(F)cccc43)cnc12` [X.019, 5-fluoro-3,3,4,4-tetramethyl-1-(8-methylimidazo[1,2-a]pyridin-3-yl)isoquinoline] gave a melting point of 160 to 161 °C.

Usually melting point stands for the temperature, or range, at which the solid turns liquid.

(Values after patent US11124508B2 (priority 2017, dated 2021).)
